Source: PMC3608651, “A Broad Profile of Co-Dominant Epitopes Shapes the Peripheral Mycobacterium tuberculosis Specific CD8+ T-Cell Immune Response in South African Patients with Active Tuberculosis” (PLoS ONE, 2013)
Where two headings read alike, the source gives them in different places.

How the values were obtained:
Format in all cases: binding
HLA-A*02:01 = HLA-A*02:01 (Homo sapiens, UniProt P04439, D140Y/D185E/D98H/E176V/E277Q/G131W/G231S/I119V/I121R/I166T/I218V/L300P/L318F/N151K/N90K/P208A/P217A/Q86G/Q94H/R138H/R169H/T345S)
HLA-A*24:02 = HLA-A*24:02 (Homo sapiens, UniProt P04439, D101N/D140Y/D185E/E176V/E190D/F33S/G103R/G107R/I119L/I121M/I306V/K335N/L105A/L180Q/L300P/N151K/N90K/Q86E/Q94H/R106L/R138H/R89G/T104I/T345S/V100E/W191G/Y123F); conditions: duplicated experiments, positive binder >40%
HLA-A*30:01 = HLA-A*30:01 (Homo sapiens, UniProt P04439, D140H/D185E/E176W/F33S/G80R/H175R/K168Q/R138E/R41S); conditions: duplicated experiments, positive binder >40%
HLA-A*30:02 = HLA-A*30:02 (Homo sapiens, UniProt P04439, D101N/D140H/D185E/E176R/F33S/G80R/H175R/K168Q/Q94H/R138E/R41S/V100E); conditions: duplicated experiments, positive binder >40%
HLA-A*68:01 = HLA-A*68:01 (Homo sapiens, UniProt P04439, A269V/D185E/E176V/E277Q/E87N/F33Y/G231S/I121M/I166T/I218V/L180W/L300P/L318F/N151K/P208A/P217A/Q86R/R169H/T345S); conditions: duplicated experiments, positive binder >40%
HLA-B*07:02 = HLA-B*07:02 (Homo sapiens, UniProt P01889); conditions: percent relative the binding of positive control peptide […]; duplicated experiments; positive binder >40%
HLA-B*58:01 = HLA-B*58:01 (Homo sapiens, UniProt P01889, A329T/C349S/D201E/D98Y/E176V/E187L/E204Q/E69T/G107R/I218V/I90N/K202T/L105A/L119I/N104I/N87E/Q89R/Q94S/R106L/R155S/R180L/R86G/S101N/S121R/S35A/S48A/T118I/V127L/V306I/V36M/Y140S/Y91M); conditions: duplicated experiments, positive binder >40%
HLA-C*07:01 = HLA-C*07:01 (Homo sapiens, UniProt P10321, K90N/S123Y); conditions: duplicated experiments, positive binder >40%
[1] = percent relative the binding of positive control peptide […], plate-bound monomer 0.5 µg/ml, duplicated experiments, positive binder >40%
[2] = percent relative the binding of positive control peptide […]

Substance | Bind A*02:01 (HLA-A*02:01; [1]) | Bind A*24:02 (HLA-A*24:02; [2]) | Bind A*30:01 (HLA-A*30:01; [2]) | Bind A*30:02 (HLA-A*30:02; [2]) | Bind A*68:01 (HLA-A*68:01; [2]) | Bind B*07:02 (HLA-B*07:02) | Bind B*58:01 (HLA-B*58:01; [2]) | Bind C*07:01 (HLA-C*07:01; [2]) | Bind A*02:01 (HLA-A*02:01; percent relative the binding of positive control peptide FLPSDFFPSV, plate-bound monomer 0.5 µg/ml, duplicated experiments, positive binder >40%) | Bind A*24:02 (HLA-A*24:02; percent relative the binding of positive control peptide RYLKDQQLL) | Bind A*30:01 (HLA-A*30:01; percent relative the binding of positive control peptide KTKDIVNGL) | Bind A*30:02 (HLA-A*30:02; percent relative the binding of positive control peptide KIQNFRVYY) | Bind A*68:01 (HLA-A*68:01; percent relative the binding of positive control peptide KTGGPIYKR) | Bind B*58:01 (HLA-B*58:01; percent relative the binding of positive control peptide IAMESIVIW) | Bind C*07:01 (HLA-C*07:01; percent relative the binding of positive control peptide KYFDEHYEY) | Bind A*02:01 (HLA-A*02:01)
PQWLSANRA | 52% | 75% | 36% | 13% | 13% | 14% | 0% | 2% | – | – | – | – | – | – | – | –
PSQGMGPSL | 39% | 56% | 21% | 16% | 0% | 8% | 0% | 29% | – | – | – | – | – | – | – | –
PSSDPAW ER | 1% | 0% | 0% | 0% | 53% | 10% | 2% | 18% | – | – | – | – | – | – | – | –
PTQQIPKLV | 3% | 11% | 10% | 86% | 0% | 5% | 9% | 22% | – | – | – | – | – | – | – | –
PVGGQSSFY | 0% | 0% | 0% | 82% | 0% | 0% | 0% | 0% | – | – | – | – | – | – | – | –
QLNAMKGDL | 71% | 60% | 10% | 0% | 0% | 49% | 0% | 17% | – | – | – | – | – | – | – | –
QQFIYAGSL | 42% | 0% | 0% | 80% | 0% | 0% | 8% | 27% | – | – | – | – | – | – | – | –
QQIPKLVAN | 36% | 0% | 10% | 60% | 2% | 2% | 16% | 15% | – | – | – | – | – | – | – | –
QQWNFAGIE [Rv3875_4–12] | – | – | – | – | – | 1% | – | – | 45% | 0% | 0% | 39% | 15% | 0% | 11% | –
QSGLSIVMP | 30% | 0% | 34% | 0% | 0% | 0% | 0% | 43% | – | – | – | – | – | – | – | –
RLWVYCGNG | 45% | 0% | 0% | 65% | 12% | 2% | 8% | 9% | – | – | – | – | – | – | – | –
SAAIGLSMA | 67% | 0% | 0% | 0% | 0% | 31% | 5% | 0% | – | – | – | – | – | – | – | –
SALLDPSQG | 0% | 0% | 12% | 62% | 0% | 3% | 8% | 9% | – | – | – | – | – | – | – | –
SFYSDW YSP | 7% | 0% | 0% | 77% | 0% | 0% | 0% | 0% | – | – | – | – | – | – | – | –
SGLSIVMPV | 95% | 0% | 0% | 38% | 0% | 0% | 0% | 0% | – | – | – | – | – | – | – | –
SLIGLAMGD | – | 0% | 0% | 47% | 0% | 3% | 0% | 0% | – | – | – | – | – | – | – | 57

Substance | Bind A*02:01 (HLA-A*02:01; [1]) | Bind A*24:02 (HLA-A*24:02; [2]) | Bind A*30:01 (HLA-A*30:01; [2]) | Bind A*30:02 (HLA-A*30:02; [2]) | Bind A*68:01 (HLA-A*68:01; [2]) | Bind B*07:02 (HLA-B*07:02) | Bind B*58:01 (HLA-B*58:01; [2]) | Bind C*07:01 (HLA-C*07:01; [2]) | Bind A*02:01 (HLA-A*02:01; percent relative the binding of positive control peptide FLPSDFFPSV, plate-bound monomer 0.5 µg/ml, duplicated experiments, positive binder >40%) | Bind A*24:02 (HLA-A*24:02; percent relative the binding of positive control peptide RYLKDQQLL) | Bind A*30:01 (HLA-A*30:01; percent relative the binding of positive control peptide KTKDIVNGL) | Bind A*30:02 (HLA-A*30:02; percent relative the binding of positive control peptide KIQNFRVYY) | Bind A*68:01 (HLA-A*68:01; percent relative the binding of positive control peptide KTGGPIYKR) | Bind B*58:01 (HLA-B*58:01; percent relative the binding of positive control peptide IAMESIVIW) | Bind C*07:01 (HLA-C*07:01; percent relative the binding of positive control peptide KYFDEHYEY) | Bind A*02:01 (HLA-A*02:01)
SLSALLDPS | 57% | 4% | 2% | 3% | 0% | 1% | 18% | 11% | – | – | – | – | – | – | – | –
SPACGKAGC | 16% | 0% | 0% | 0% | 0% | 77% | 0% | 0% | – | – | – | – | – | – | – | –
SPAVYLLDG | 0% | 49% | 0% | 0% | 0% | 0% | 0% | 1% | – | – | – | – | – | – | – | –
SQGMGPSLI | 50% | 55% | 11% | 0% | 0% | 2% | 11% | 22% | – | – | – | – | – | – | – | –
SSNLKFQDA | 32% | 12% | 0% | 64% | 14% | 0% | 9% | 10% | – | – | – | – | – | – | – | –
SW EYW GAQL | 31% | 79% | 0% | 0% | 0% | 1% | 0% | 0% | – | – | – | – | – | – | – | –
T RLW V Y CG N | 0% | 0% | 45% | 33% | 5% | 0% | 0% | 15% | – | – | – | – | – | – | – | –
THSWEYWGA | 21% | 0% | 0% | 67% | 57% | 2% | 0% | 6% | – | – | – | – | – | – | – | –
TSELPQW LS | 12% | 52% | 0% | 0% | 0% | 14% | 0% | 0% | – | – | – | – | – | – | – | –
VKPTGSAAI | 0% | 0% | 0% | 0% | 0% | 43% | 0% | 0% | – | – | – | – | – | – | – | –
VMPVGGQSS | 60% | 0% | 0% | 12% | 0% | 0% | 0% | 0% | – | – | – | – | – | – | – | –
VQFQSGGNN | 0% | 0% | 0% | 51% | 0% | 0% | 0% | 0% | – | – | – | – | – | – | – | –
VRSSNLKFQ | 5% | 23% | 0% | 0% | 14% | 10% | 7% | 61% | – | – | – | – | – | – | – | –
VYCGNGTPN | 0% | 11% | 8% | 80% | 4% | 3% | 15% | 59% | – | – | – | – | – | – | – | –
VYLLDGLRA | 86% | 87% | 0% | 98% | 13% | 0% | 0% | 9% | – | – | – | – | – | – | – | –
